Assay results: ChEMBL document CHEMBL1649296, “Modifying culture conditions in chemical library screening identifies alternative inhibitors of mycobacteria” (Antimicrob Agents Chemother, 2009)
Converted amounts (≈) assume the structure as drawn. Numbered stars: 1 amine (or outer) side, 2 acyl side, 3 side chain; on linkers, the order of the positions; unused ones are H or OH. Bridge positions count the residues as written; N and C are the ends. Square brackets hold non-standard residues; d marks the D form. Peptide text beside a SMILES is read from it. * marks the point of attachment. ξ: configuration not given here. X1 = N=C1NCCC([C@H](N[*:1])C(=O)[*:2])N1; ΔAla(Z-3-ureido) = NC(=O)N/C=C(\N)C(=O)O; ξβ3hOrn = NCCCC(N)CC(=O)*; Dap = NC[C@H](N)C(=O)O

What was measured:
Assay type in all cases: functional, organism-based
[1] = system: Mycolicibacterium smegmatis; assay: Antimycobacterial activity against Mycobacterium smegmatis assessed as growth inhibition in mid-logarithmic phase by spectrophotometry
[2] = system: Mycolicibacterium smegmatis; assay: Antimycobacterial activity against Mycobacterium smegmatis by GFP-based fluorescence assay
[3] = system: Mycolicibacterium smegmatis; assay: Antimycobacterial activity against Mycobacterium smegmatis grown in Luria-Bertani broth medium assessed as growth inhibition in mid-logarithmic phase by spectrophotometry; settings: Mycolicibacterium smegmatis
[4] = system: Mycolicibacterium smegmatis; assay: Antimycobacterial activity against Mycobacterium smegmatis grown in carbon-limited broth medium assessed as growth inhibition in mid-logarithmic phase by spectrophotometry; settings: Mycolicibacterium smegmatis
[5] = system: Mycolicibacterium smegmatis; assay: Antimycobacterial activity against Mycobacterium smegmatis grown in nitrogen -limited broth medium assessed as growth inhibition in mid-logarithmic phase by spectrophotometry; settings: Mycolicibacterium smegmatis
[6] = system: Mycolicibacterium smegmatis; assay: Antimycobacterial activity against Mycobacterium smegmatis grown in Luria-Bertani broth medium assessed as growth inhibition in mid-logarithmic phase by GFP-based fluorescence assay; settings: Mycolicibacterium smegmatis
[7] = system: Mycolicibacterium smegmatis; assay: Antimycobacterial activity against Mycobacterium smegmatis grown in carbon-limited broth medium assessed as growth inhibition in mid-logarithmic phase by GFP-based fluorescence assay; settings: Mycolicibacterium smegmatis
[8] = system: Mycolicibacterium smegmatis; assay: Antimycobacterial activity against Mycobacterium smegmatis grown in nitrogen -limited broth medium assessed as growth inhibition in mid-logarithmic phase by GFP-based fluorescence assay; settings: Mycolicibacterium smegmatis

Structure (SMILES) | MIC [1] | MIC [2] | IC50 ([2]; read-out: IC50) | IC50 [1] | other results
CCc1cc(C(N)=S)ccn1 [ETHIONAMIDE] | 100 µM (≈ 16.6 µg/mL) | 100 µM (≈ 16.6 µg/mL) | 6750 nM | 7660 nM | 
O=C(O)c1cn(C2CC2)c2cc(N3CCNCC3)c(F)cc2c1=O [CIPROFLOXACIN] | 12.5 µM (≈ 4.14 µg/mL) | 12.5 µM (≈ 4.14 µg/mL) |  | 1980 nM | IC50 [2]: 1070 nM
C[C@@H]1NC(=O)[C@@H](N)CNC(=O)[C@H](C2CCNC(=N)N2)NC(=O)/C(=C/NC(N)=O)NC(=O)[C@H](CNC(=O)CC(N)CCCN)NC1=O.N=C1NCCC([C@@H]2NC(=O)/C(=C/NC(N)=O)NC(=O)[C@H](CNC(=O)CC(N)CCCN)NC(=O)[C@H](CO)NC(=O)[C@@H](N)CNC2=O)N1 (stereo partly drawn) [CAPREOMYCIN] (H-[Dap]S[Dap](ξβ3hOrn)[ΔAla(Z-3-ureido)][X1]; lactam 1-C) | 12.5 µM | 12.5 µM | 1780 nM | 2120 nM | 
Cc1cc(N)c2ccccc2[n+]1CCCCCCCCCCCCCC[n+]1c(C)cc(N)c2ccccc21 |  |  |  |  | IC50 [3]: 3950 nM; MIC [3]: 6.25 µM; IC50 [4]: 2730 nM; MIC [4]: 6.25 µM; IC50 [5]: 1740 nM; MIC [5]: 3.12 µM; IC50 [6]: 3950 nM; MIC [6]: 6.25 µM; IC50 [7]: 2730 nM; MIC [7]: 6.25 µM; IC50 [8]: 1740 nM; MIC [8]: 3.12 µM

Continued, in another order:

MIC [1] | MIC [2] | IC50 ([2]; read-out: IC50) | Structure (SMILES) | IC50 [1] | other results
6.25 µM (≈ 5.14 µg/mL) | 6.25 µM (≈ 5.14 µg/mL) | 3110 nM | CO[C@H]1/C=C/O[C@@]2(C)Oc3c(C)c(O)c4c(O)c(c(/C=N/N5CCN(C)CC5)c(O)c4c3C2=O)NC(=O)/C(C)=C\C=C\[C@H](C)[C@H](O)[C@@H](C)[C@@H](O)[C@@H](C)[C@H](OC(C)=O)[C@@H]1C [RIFAMPIN] | 4360 nM | 
12.5 µM (≈ 2.55 µg/mL) | 12.5 µM (≈ 2.55 µg/mL) | 3200 nM | CC[C@@H](CO)NCCN[C@@H](CC)CO [ETHAMBUTOL] | 3660 nM | 
1.56 µM (≈ 0.907 µg/mL) | 1.56 µM (≈ 0.907 µg/mL) | 480 nM | CN[C@@H]1[C@H](O[C@H]2[C@H](O[C@H]3[C@H](O)[C@@H](O)[C@H](N=C(N)N)[C@@H](O)[C@@H]3N=C(N)N)O[C@@H](C)[C@]2(O)C=O)O[C@@H](CO)[C@H](O)[C@H]1O [STREPTOMYCIN] | 500 nM | 
6.25 µM (≈ 2.78 µg/mL) | 6.25 µM (≈ 2.78 µg/mL) | 330 nM | CN(C)[C@@H]1C(O)=C(C(N)=O)C(=O)[C@@]2(O)C(O)=C3C(=O)c4c(O)cccc4[C@@](C)(O)[C@H]3C[C@@H]12 [TETRACYCLINE] | 410 nM | 
